According to ChEMBL document CHEMBL1932969, “Acyl derivatives of boswellic acids as inhibitors of NF-κB and STATs” (Bioorg Med Chem Lett, 2012):
Calls of active or inactive are those of the source. No cut-off for these calls is given here.

Experiments:
[1] = target: T1, Signal transducer and activator of transcription 6 (Homo sapiens) (UniProt P42226); assay: Inhibition of STAT6 Tyr641 phosphorylation in p53-deficient human HL60 cells at 20 to 50 uM after 6 hrs by Western blot analysis; format: cell-based; details: HL-60
T1 sequence (whole entry): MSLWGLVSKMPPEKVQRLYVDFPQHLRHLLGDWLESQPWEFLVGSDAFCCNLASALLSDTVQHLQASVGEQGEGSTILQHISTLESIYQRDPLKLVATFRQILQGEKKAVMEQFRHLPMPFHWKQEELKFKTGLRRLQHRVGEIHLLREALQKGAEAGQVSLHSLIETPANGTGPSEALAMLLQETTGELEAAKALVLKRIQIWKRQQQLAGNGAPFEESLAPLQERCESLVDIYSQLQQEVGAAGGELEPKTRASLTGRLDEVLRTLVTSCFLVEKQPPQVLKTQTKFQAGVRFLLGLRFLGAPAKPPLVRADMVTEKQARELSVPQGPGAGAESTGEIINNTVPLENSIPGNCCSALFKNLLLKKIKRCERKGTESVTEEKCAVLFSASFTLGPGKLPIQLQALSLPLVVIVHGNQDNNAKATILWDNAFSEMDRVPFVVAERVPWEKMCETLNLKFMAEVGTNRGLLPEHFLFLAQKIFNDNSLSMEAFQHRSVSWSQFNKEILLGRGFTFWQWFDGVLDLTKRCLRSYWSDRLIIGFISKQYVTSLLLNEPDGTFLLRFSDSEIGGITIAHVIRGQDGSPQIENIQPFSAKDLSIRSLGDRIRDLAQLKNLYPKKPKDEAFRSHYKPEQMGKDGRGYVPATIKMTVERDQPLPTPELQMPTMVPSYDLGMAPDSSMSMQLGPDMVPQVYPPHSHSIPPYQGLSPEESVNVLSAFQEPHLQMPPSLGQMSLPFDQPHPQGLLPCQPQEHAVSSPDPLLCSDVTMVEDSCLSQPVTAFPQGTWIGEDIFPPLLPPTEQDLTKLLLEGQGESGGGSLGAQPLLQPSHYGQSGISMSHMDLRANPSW

[2] = target: T1, Signal transducer and activator of transcription 6 (Homo sapiens); assay: Inhibition of STAT6 protein expression in p53-deficient human HL60 cells at 20 to 50 uM after 6 hrs by Western blot analysis; format: cell-based; details: HL-60

With `CCCC(=O)O[C@@H]1CC[C@@]2(C)[C@@H](CC[C@]3(C)[C@@H]2C(=O)C=C2[C@@H]4[C@@H](C)[C@H](C)CC[C@]4(C)CC[C@]23C)[C@@]1(C)C(=O)O` the inhibition [1] was “Active” and the inhibition [2] was “Active”.
